From patent US11098057B2, “9,10,11,12-tetrahydro-8H-[1,4]diazepino[5′,6′:4,5]thieno[3,2-F]quinolin-8-one compounds and uses thereof” (Celgene CAR LLC, priority 2017, dated 2021)

Tested on: phosphorylation of Hsp27 (Ser78) in Thp-1 human acute monocytic leukemia cells
Test: MK2 cellular assay, detection of total and phospho-Hsp27 (Serine 78) by MSD ELISA (Thp1)
Format: cell-based
Conditions: Thp-1 cells, 1 hour compound, then 50 ng/mL LPS for 45 minutes, read-out: pHSP27 signaling EC50
Description: MK2 Cellular Assay—Detection of Total and Phospho-Hsp27 (Serine 78) by MSD ELISA (Thp1)
Compounds of the invention can be assayed in Thp-1 human acute monocytic leukemia cells to measure inhibition of MK2 activity according to procedures detailed in the '463 application.
Specifically, Thp-1 cells were grown in culture medium containing RPMI/10% FBS (fetal bovine serum)/0.05 mM 2-mercaptoethanol. 72 hours prior to the assay, 8×10^4 cells per well were plated in a 96 well flat bottom plate along with 10 ng/mL phorbol 12-myristate 13-acetate (PMA). Cells were cultured in an incubator at 37° C. until needed for the assay. Cell plate media was replaced with culture media just prior to assay while compound dilutions were being made.
Stock solutions of test compound, 1 mM in DMSO, were prepared. […]
The MULTI-SPOT Phospho(Ser78)/Total HSP27 ELISA Assay kit was purchased from Meso Scale […] (MSD; catalog #K15128D). […] 150 μl/well 1×MSD read buffer was added (4× read buffer supplied with kit) and the plate was analyzed on the MSD SECTOR®Imager for analysis. The SECTOR®Imager measures intensity of emitted light to provide a quantitative measure of phosphorylated HSP27 (Ser78) and total HSP27 present in the sample. The relative percent phosphoprotein in a sample is calculated by dividing the Phospho-HSP27 signal intensity over the total HSP27 signal intensity measured in each well.

CCOCc1cnc(Cl)nc1Oc1ccc2c(ccc3sc4c(c32)NC[C@H](C)NC4=O)n1 [Compound I-82]
EC50: 101 to 500 nM
